Experimental findings from the OligoGym collection are described below.

Several values for one entry are separate records, joined by “and”; a condition that tells them apart may be missing. Identical values can stand only once. HELM strings list units from the 5' end as sugar, base in round brackets, then linkage (d deoxyribose, r ribose, m 2'-O-methyl, p phosphodiester). Strings are as the collection lists them; they lack the last nucleoside at the 3' end of the tested compound. [moe] = 2'-O-(2-methoxyethyl) (MOE); [sp] = phosphorothioate linkage; [m5C] = 5-methylcytosine

The data set addresses SMN2. Briefly: mouse, dose not given. As to conditions: ASO.
For “RNA1{[moe](T)[sp].[moe](T)[sp].[moe]([m5C])[sp].[moe](A)[sp].[moe]([m5C])[sp].[moe](T)[sp].[moe](T)[sp].[moe](T)[sp].[moe]([m5C])[sp].[moe](A)[sp].[moe](T)[sp].[moe](A)[sp].[moe](A)[sp].[moe](T)p.[moe](G)[sp].[moe]([m5C])p.[moe](T)[sp].[moe](G)}$$$$ (last 3' nucleoside missing)”, the 3 h FOB score came to 1 score 0-7.
For the substance “RNA1{[moe](T)[sp].[moe](T)[sp].[moe]([m5C])[sp].[moe](A)[sp].[moe]([m5C])[sp].[moe](T)[sp].[moe](T)[sp].[moe](T)[sp].[moe]([m5C])p.[moe](A)[sp].[moe](T)[sp].[moe](A)[sp].[moe](A)[sp].[moe](T)[sp].[moe](G)[sp].[moe]([m5C])p.[moe](T)[sp].[moe](G)}$$$$ (last 3' nucleoside missing)”, the 3 h FOB score turned out to be 2 score 0-7.
The substance “RNA1{[moe](A)[sp].[moe](T)[sp].[moe](T)[sp].[moe]([m5C])[sp].[moe](A)[sp].[moe]([m5C])[sp].[moe](T)[sp].[moe](T)[sp].[moe](T)[sp].[moe]([m5C])[sp].[moe](A)[sp].[moe](T)[sp].[moe](A)[sp].[moe](A)[sp].[moe](T)[sp].[moe](G)p.[moe]([m5C])p.[moe](T)[sp].[moe](G)}$$$$ (last 3' nucleoside missing)” displayed a 3 h FOB score of 3 score 0-7.
As for “RNA1{[moe](T)[sp].[moe]([m5C])[sp].[moe](A)[sp].[moe]([m5C])[sp].[moe](T)[sp].[moe](T)[sp].[moe](T)[sp].[moe]([m5C])[sp].[moe](A)[sp].[moe](T)[sp].[moe](A)[sp].[moe](A)p.[moe](T)[sp].[moe](G)p.[moe]([m5C])[sp].[moe](T)[sp].[moe](G)}$$$$ (last 3' nucleoside missing)”, the 3 h FOB score is 2.5 score 0-7.
Take “RNA1{[moe](T)[sp].[moe]([m5C])[sp].[moe](A)[sp].[moe]([m5C])[sp].[moe](T)[sp].[moe](T)[sp].[moe](T)[sp].[moe]([m5C])[sp].[moe](A)[sp].[moe](T)[sp].[moe](A)[sp].[moe](A)[sp].[moe](T)[sp].[moe](G)[sp].[moe]([m5C])[sp].[moe](T)[sp].[moe](G)[sp].[moe](G)p.d([m5C])}$$$$ (last 3' nucleoside missing)”: the 3 h FOB score is 4 score 0-7 (2×) and 3.75 score 0-7 (2×) and 3.5 score 0-7.
As for “RNA1{[moe](A)[sp].[moe](T)p.[moe](T)[sp].[moe]([m5C])[sp].[moe](A)[sp].[moe]([m5C])[sp].[moe](T)[sp].[moe](T)[sp].[moe](T)[sp].[moe]([m5C])[sp].[moe](A)[sp].[moe](T)[sp].[moe](A)[sp].[moe](A)[sp].[moe](T)[sp].[moe](G)[sp].[moe]([m5C])[sp].[moe](T)[sp].[moe](G)}$$$$ (last 3' nucleoside missing)”, the figure is 4 score 0-7; as for “RNA1{[moe](T)[sp].[moe]([m5C])[sp].[moe](A)[sp].[moe]([m5C])[sp].[moe](T)[sp].[moe](T)[sp].[moe](T)[sp].[moe]([m5C])[sp].[moe](A)[sp].[moe](T)[sp].[moe](A)[sp].[moe](A)p.[moe](T)[sp].[moe](G)[sp].[moe]([m5C])[sp].[moe](T)[sp].[moe](G)}$$$$ (last 3' nucleoside missing)”, 3.5 score 0-7.
For the substance “RNA1{[moe](A)[sp].[moe](T)[sp].[moe](T)[sp].[moe]([m5C])[sp].[moe](A)[sp].[moe]([m5C])[sp].[moe](T)[sp].[moe](T)[sp].[moe](T)p.[moe]([m5C])p.[moe](A)[sp].[moe](T)[sp].[moe](A)[sp].[moe](A)[sp].[moe](T)[sp].[moe](G)[sp].[moe]([m5C])[sp].[moe](T)[sp].[moe](G)}$$$$ (last 3' nucleoside missing)”, the 3 h FOB score was found to be 4 score 0-7.
Regarding “RNA1{[moe](A)[sp].[moe]([m5C])[sp].[moe](T)p.[moe](T)[sp].[moe](T)[sp].[moe]([m5C])p.[moe](A)[sp].[moe](T)[sp].[moe](A)p.[moe](A)[sp].[moe](T)[sp].[moe](G)p.[moe]([m5C])[sp].[moe](T)p.[moe](G)[sp].[moe](G)}$$$$ (last 3' nucleoside missing)”, the 3 h FOB score was 0 score 0-7.
As for “RNA1{[moe](A)[sp].[moe]([m5C])[sp].[moe](T)p.[moe](T)[sp].[moe](T)[sp].[moe]([m5C])[sp].[moe](A)p.[moe](T)[sp].[moe](A)[sp].[moe](A)[sp].[moe](T)p.[moe](G)[sp].[moe]([m5C])[sp].[moe](T)p.[moe](G)[sp].[moe](G)}$$$$ (last 3' nucleoside missing)”, the 3 h FOB score is 0 score 0-7.
As for “RNA1{[moe](A)[sp].[moe](T)[sp].[moe](T)[sp].[moe]([m5C])[sp].[moe](A)[sp].[moe]([m5C])[sp].[moe](T)[sp].[moe](T)[sp].[moe](T)[sp].[moe]([m5C])[sp].[moe](A)[sp].[moe](T)[sp].[moe](A)[sp].[moe](A)[sp].[moe](T)[sp].[moe](G)[sp].[moe]([m5C])p.[moe](T)[sp].[moe](G)}$$$$ (last 3' nucleoside missing)”, the figure is 4 score 0-7; as for “RNA1{[moe]([m5C])[sp].[moe](T)[sp].[moe](T)[sp].[moe](T)[sp].[moe]([m5C])[sp].[moe](A)[sp].[moe](T)p.[moe](A)p.[moe](A)p.[moe](T)[sp].[moe](G)[sp].[moe]([m5C])[sp].[moe](T)[sp].[moe](G)[sp].[moe](G)}$$$$ (last 3' nucleoside missing)”, 2 score 0-7; as for “RNA1{[moe]([m5C])p.[moe](T)[sp].[moe]([m5C])[sp].[moe](A)[sp].[moe]([m5C])[sp].[moe](T)[sp].[moe](T)[sp].[moe](T)[sp].[moe]([m5C])[sp].[moe](A)[sp].[moe](T)[sp].[moe](A)[sp].[moe](A)[sp].[moe](T)[sp].[moe](G)[sp].[moe]([m5C])[sp].[moe](T)[sp].[moe](G)}$$$$ (last 3' nucleoside missing)”, 3.5 score 0-7.
On to “RNA1{[moe](T)[sp].[moe]([m5C])[sp].[moe](A)[sp].[moe]([m5C])[sp].[moe](T)[sp].[moe](T)[sp].[moe](T)[sp].[moe]([m5C])[sp].[moe](A)[sp].[moe](T)[sp].[moe](A)p.[moe](A)[sp].[moe](T)[sp].[moe](G)p.[moe]([m5C])[sp].[moe](T)[sp].[moe](G)}$$$$ (last 3' nucleoside missing)”, for which the 3 h FOB score is 2 score 0-7.
“RNA1{[moe]([m5C])[sp].[moe](A)[sp].[moe]([m5C])[sp].[moe](T)[sp].[moe](T)[sp].[moe](T)[sp].[moe]([m5C])p.[moe](A)[sp].[moe](T)[sp].[moe](A)[sp].[moe](A)[sp].[moe](T)[sp].[moe](G)[sp].[moe]([m5C])[sp].[moe](T)[sp].[moe](G)[sp].[moe](G)}$$$$ (last 3' nucleoside missing)” returned a 3 h FOB score of 0 score 0-7.
The result for “RNA1{[moe](T)[sp].[moe]([m5C])[sp].[moe](A)[sp].[moe]([m5C])[sp].[moe](T)[sp].[moe](T)[sp].[moe](T)[sp].[moe]([m5C])[sp].[moe](A)p.[moe](T)[sp].[moe](A)[sp].[moe](A)[sp].[moe](T)[sp].[moe](G)[sp].[moe]([m5C])p.[moe](T)[sp].[moe](G)}$$$$ (last 3' nucleoside missing)” reads 3.25 score 0-7.
Substance “RNA1{[moe]([m5C])[sp].[moe](A)p.[moe]([m5C])[sp].[moe](T)[sp].[moe](T)[sp].[moe](T)[sp].[moe]([m5C])[sp].[moe](A)[sp].[moe](T)[sp].[moe](A)[sp].[moe](A)[sp].[moe](T)p.[moe](G)[sp].[moe]([m5C])[sp].[moe](T)[sp].[moe](G)[sp].[moe](G)}$$$$ (last 3' nucleoside missing)” came in with a 3 h FOB score of 0 score 0-7.
